Data: patent publication US20120132797A1, “MEANS AND METHODS FOR DIAGNOSING THYROID DISORDERS” (BASF SE, priority 2009, published 2012)

Test system: Wistar (Crl:WI(Han)) rats
Test: Mass spectrometry-based plasma metabolite profiling of rats treated with known inducers of thyroid function impairment
Format: in vivo, rat
Settings: ratio of group medians vs controls
Excerpt: At the beginning of the study the animals were 10-11 weeks old. Each dose group in the studies consisted of five rats per sex, and was compared with controls (10 rats per sex). […] The dose levels were chosen to show the typical overt (high dose) and slight (low dose) toxicological symptoms of the substances as described in the literature or in BASF internal study reports.
Blood samples were withdrawn from the retro-orbital sinus in all rats under isoflurane anesthesia on study days 7, 14 and 28 after a fasting period of 16-20 hours.
For mass spectrometry-based metabolite profiling analysis, plasma samples were extracted by a proprietary method which delivers a polar and a non-polar fraction. For GC-MS analysis, the non-polar fraction was treated with methanol under acidic conditions to yield the fatty acid methyl esters. Both fractions were further derivatised with Omethyl-hydroxyamine hydrochloride and pyridine to convert oxo groups to Omethyloximes and subsequently with a silylating agent before analysis.
In LC-MS/MS analysis, both fractions were reconstituted in appropriate solvent mixtures. HPLC was performed by gradient elution on reversed phase separation columns. For mass spectrometric detection metanomics proprietary technology was applied, which allows target and high sensitivity MRM (Multiple Reaction Monitoring) profiling in parallel to a full screen analysis. […] Moreover, several hundred additional analytes giving a fingerprint of the sample were included in the methods.
Following comprehensive analytical validation steps, the data for each analyte were normalized against data from pool samples. These samples were run in parallel through the whole process to account for process variability.
The sex- and day-stratified heteroscedastic t-test (“Welch test”) was applied to compare treated groups with respective controls. p-Values and ratios of corresponding group medians were collected as metabolic profiles and fed into a database.

[1] = male rats, mh7 (study day 7), Table 4
[2] = male rats, mh14 (study day 14), Table 4
[3] = male rats, mh28 (study day 28), Table 4
[4] = female rats, fh7 (study day 7), Table 3
[5] = female rats, fh14 (study day 14), Table 3
[6] = female rats, fh28 (study day 28), Table 3
[7] = female rats, fh7 (study day 7), Table 1
[8] = female rats, fh14 (study day 14), Table 1
[9] = female rats, fh28 (study day 28), Table 1

Cc1cccc(C)c1N(Cn1cccn1)C(=O)CCl [Metazachlor]
Behenic acid (C22:0) [1]: 1.92
Cholesterol [1]: 1.71
Citrate [1]: 0.99
Cytosine [1]: 0.64
Galactose, lipid fraction [1]: 1.81
Glycerol phosphate [1]: 1.63
Glycine [1]: 1.12
Lignoceric acid (C24:0) [1]: 1.60
Mannose [1]: 1.22
Nervonic acid C24:(cis[15]1) [1]: 3.17
Phospha-tidylcholine (C18:0, 18:2) [1]: 1.40
Sphingomyelin (d18:1, C16:0) [1]: 2.54
Stearic acid (C18:0) [1]: 1.45
Threonic acid [1]: 1.16
dihomo-gamma-Linolenic acis (C20:cis[8,11,14]3) [1]: 2.41
erythro-Sphingosine [1]: 2.31
myo-Inositol-2-phosphate [1]: 2.17
threo-Sphingosine [1]: 2.05
Behenic acid (C22:0) [2]: 2.47
Cholesterol [2]: 2.15
Citrate [2]: 0.94
Cytosine [2]: 0.75
Galactose, lipid fraction [2]: 2.27
Glycerol phosphate [2]: 2.20
Glycine [2]: 1.10
Lignoceric acid (C24:0) [2]: 2.38
Mannose [2]: 1.37
Nervonic acid C24:(cis[15]1) [2]: 4.00
Phospha-tidylcholine (C18:0, 18:2) [2]: 1.55
Sphingomyelin (d18:1, C16:0) [2]: 2.36
Stearic acid (C18:0) [2]: 2.36
Threonic acid [2]: 1.25
dihomo-gamma-Linolenic acis (C20:cis[8,11,14]3) [2]: 5.18
erythro-Sphingosine [2]: 3.47
myo-Inositol-2-phosphate [2]: 4.01
threo-Sphingosine [2]: 3.22
Behenic acid (C22:0) [3]: 2.05
Cholesterol [3]: 2.43
Citrate [3]: 1.08
Cytosine [3]: 0.66
Galactose, lipid fraction [3]: 2.57
Glycerol phosphate [3]: 2.36
Glycine [3]: 1.26
Lignoceric acid (C24:0) [3]: 2.11
Mannose [3]: 1.46
Nervonic acid C24:(cis[15]1) [3]: 3.63
Phospha-tidylcholine (C18:0, 18:2) [3]: 1.51
Sphingomyelin (d18:1, C16:0) [3]: 2.32
Stearic acid (C18:0) [3]: 2.59
Threonic acid [3]: 1.36
dihomo-gamma-Linolenic acis (C20:cis[8,11,14]3) [3]: 3.36
erythro-Sphingosine [3]: 3.68
myo-Inositol-2-phosphate [3]: 2.79
threo-Sphingosine [3]: 3.54

Cc1ncc[nH]1 [2-Methylimidazole]
Arachidonic acid (C20:cis[58,11,14]4) [4]: 1.04
Behenic acid (C22:0) [4]: 1.34
Cholesterol [4]: 1.14
Cysteine [4]: 0.70
Docosahexaenoic acid (C22:cis[4,7,10,13,16,19]6) [4]: 1.37
Dodecanol [4]: 1.06
Eicosanoic acid (C20:0) [4]: 1.06
Glycerol phosphate [4]: 1.21
Heptadecanoic acid (C17:0) [4]: 1.14
Linoleic acid (C18:cis[9,12]2) [4]: 1.19
Nervonic acid C24:(cis[15]1) [4]: 1.11
Palmitic acid (C16:0) [4]: 1.21
Sphingomyelin (d18:1, C16:0) [4]: 1.34
Stearic acid (C18:0) [4]: 0.99
Threonic acid [4]: 1.45
dihomo-gamma-Linolenic acid (C20:cis[8,11,14]3) [4]: 0.83
erythro-Sphingosine [4]: 1.38
gamma-Linolenic acid (C18:cis[6,9,12]3) [4]: 0.91
myo-Inositol-2-phosphate [4]: 1.61
threo-Sphingosine [4]: 1.28
Arachidonic acid (C20:cis[58,11,14]4) [5]: 1.20
Behenic acid (C22:0) [5]: 1.25
Cholesterol [5]: 1.41
Cysteine [5]: 0.63
Docosahexaenoic acid (C22:cis[4,7,10,13,16,19]6) [5]: 1.42
Dodecanol [5]: 1.11
Eicosanoic acid (C20:0) [5]: 1.34
Glycerol phosphate [5]: 1.26
Heptadecanoic acid (C17:0) [5]: 1.27
Linoleic acid (C18:cis[9,12]2) [5]: 1.27
Nervonic acid C24:(cis[15]1) [5]: 1.52
Palmitic acid (C16:0) [5]: 1.30
Sphingomyelin (d18:1, C16:0) [5]: 1.26
Stearic acid (C18:0) [5]: 1.02
Threonic acid [5]: 1.26
dihomo-gamma-Linolenic acid (C20:cis[8,11,14]3) [5]: 1.53
erythro-Sphingosine [5]: 1.61
gamma-Linolenic acid (C18:cis[6,9,12]3) [5]: 1.67
myo-Inositol-2-phosphate [5]: 1.60
threo-Sphingosine [5]: 1.63
Arachidonic acid (C20:cis[58,11,14]4) [6]: 1.36
Behenic acid (C22:0) [6]: 1.34
Cholesterol [6]: 1.55
Cysteine [6]: 0.76
Docosahexaenoic acid (C22:cis[4,7,10,13,16,19]6) [6]: 1.27
Dodecanol [6]: 1.05
Eicosanoic acid (C20:0) [6]: 1.15
Glycerol phosphate [6]: 1.26
Heptadecanoic acid (C17:0) [6]: 1.38
Linoleic acid (C18:cis[9,12]2) [6]: 1.21
Nervonic acid C24:(cis[15]1) [6]: 1.74
Palmitic acid (C16:0) [6]: 1.44
Sphingomyelin (d18:1, C16:0) [6]: 1.27
Stearic acid (C18:0) [6]: 1.17
Threonic acid [6]: 0.98
dihomo-gamma-Linolenic acid (C20:cis[8,11,14]3) [6]: 1.26
erythro-Sphingosine [6]: 1.69
gamma-Linolenic acid (C18:cis[6,9,12]3) [6]: 2.30
myo-Inositol-2-phosphate [6]: 1.70
threo-Sphingosine [6]: 1.66

CCC1(c2ccccc2)C(=O)NC(=O)NC1=O [Phenobarbital sodium]
Behenic acid (C22:0) [1]: 1.03
Cholesterol [1]: 1.16
Citrate [1]: 0.89
Cytosine [1]: 1.06
Galactose, lipid fraction [1]: 1.12
Glycerol phosphate [1]: 1.05
Glycine [1]: 0.95
Lignoceric acid (C24:0) [1]: 1.21
Mannose [1]: 1.08
Nervonic acid C24:(cis[15]1) [1]: 1.27
Phospha-tidylcholine (C18:0, 18:2) [1]: 1.13
Sphingomyelin (d18:1, C16:0) [1]: 1.30
Stearic acid (C18:0) [1]: 0.99
Threonic acid [1]: 1.86
dihomo-gamma-Linolenic acis (C20:cis[8,11,14]3) [1]: 1.06
erythro-Sphingosine [1]: 1.39
myo-Inositol-2-phosphate [1]: 1.26
threo-Sphingosine [1]: 1.39
Behenic acid (C22:0) [2]: 1.11
Cholesterol [2]: 1.09
Citrate [2]: 0.93
Cytosine [2]: 1.07
Galactose, lipid fraction [2]: 1.18
Glycerol phosphate [2]: 1.04
Glycine [2]: 1.18
Lignoceric acid (C24:0) [2]: 1.18
Mannose [2]: 1.05
Nervonic acid C24:(cis[15]1) [2]: 1.77
Phospha-tidylcholine (C18:0, 18:2) [2]: 1.14
Sphingomyelin (d18:1, C16:0) [2]: 1.55
Stearic acid (C18:0) [2]: 1.19
Threonic acid [2]: 1.95
dihomo-gamma-Linolenic acis (C20:cis[8,11,14]3) [2]: 1.03
erythro-Sphingosine [2]: 1.56
myo-Inositol-2-phosphate [2]: 1.16
threo-Sphingosine [2]: 1.61
Behenic acid (C22:0) [3]: 1.21
Cholesterol [3]: 1.18
Citrate [3]: 0.96
Cytosine [3]: 0.98
Galactose, lipid fraction [3]: 1.06
Glycerol phosphate [3]: 1.05
Glycine [3]: 1.12
Lignoceric acid (C24:0) [3]: 1.25
Mannose [3]: 1.09
Nervonic acid C24:(cis[15]1) [3]: 1.65
Phospha-tidylcholine (C18:0, 18:2) [3]: 1.05
Sphingomyelin (d18:1, C16:0) [3]: 1.44
Stearic acid (C18:0) [3]: 1.09
Threonic acid [3]: 1.88
dihomo-gamma-Linolenic acis (C20:cis[8,11,14]3) [3]: 0.96
erythro-Sphingosine [3]: 1.65
myo-Inositol-2-phosphate [3]: 1.15
threo-Sphingosine [3]: 1.50

N#Cc1ccc(CC(=NNC(=O)Nc2ccc(OC(F)(F)F)cc2)c2cccc(C(F)(F)F)c2)cc1 (mixture of isomers) [Metaflumizone]
5-O-Methylsphingosine [7]: 0.99
Asparagine [7]: 0.75
Behenic acid (C22:0) [7]: 1.12
Citrate [7]: 0.84
Docosahexaenoic acid (C22:cis[4,7,10,13,16]6) [7]: 1.52
Glycine [7]: 0.93
Ketoleucine [7]: 0.97
Lysophosphatidylcholine (C18:2) [7]: 0.88
Phosphatidylcholine (C16:1, C18:2) [7]: 1.14
Phosphatidylcholine (C18:2, C20:4) [7]: 1.14
Pyruvate [7]: 0.64
Tricosanoic acid (C23:0) [7]: 1.28
erythro-Sphingosine [7]: 1.25
threo-Sphingosine [7]: 1.29
Sphingomyelin (d18:1, C16:0) (female rats, fh7 (study day 7), Table 1, first listing): 1.29
Sphingomyelin (d18:1, C16:0) (female rats, fh7 (study day 7), Table 1, second listing): 0.97
5-O-Methylsphingosine [8]: 1.42
Asparagine [8]: 0.57
Behenic acid (C22:0) [8]: 1.28
Citrate [8]: 0.62
Docosahexaenoic acid (C22:cis[4,7,10,13,16]6) [8]: 2.54
Glycine [8]: 0.97
Ketoleucine [8]: 0.81
Lysophosphatidylcholine (C18:2) [8]: 1.20
Phosphatidylcholine (C16:1, C18:2) [8]: 1.40
Phosphatidylcholine (C18:2, C20:4) [8]: 1.16
Pyruvate [8]: 0.54
Tricosanoic acid (C23:0) [8]: 1.41
erythro-Sphingosine [8]: 1.50
threo-Sphingosine [8]: 1.27
Sphingomyelin (d18:1, C16:0) (female rats, fh14 (study day 14), Table 1, first listing): 1.45
Sphingomyelin (d18:1, C16:0) (female rats, fh14 (study day 14), Table 1, second listing): 1.10
5-O-Methylsphingosine [9]: 2.07
Asparagine [9]: 1.17
Behenic acid (C22:0) [9]: 2.03
Citrate [9]: 0.88
Docosahexaenoic acid (C22:cis[4,7,10,13,16]6) [9]: 1.98
Glycine [9]: 1.63
Ketoleucine [9]: 0.81
Lysophosphatidylcholine (C18:2) [9]: 1.11
Phosphatidylcholine (C16:1, C18:2) [9]: 1.86
Phosphatidylcholine (C18:2, C20:4) [9]: 1.20
Pyruvate [9]: 0.72
Tricosanoic acid (C23:0) [9]: 2.56
erythro-Sphingosine [9]: 1.82
threo-Sphingosine [9]: 1.89
Sphingomyelin (d18:1, C16:0) (female rats, fh28 (study day 28), Table 1, first listing): 1.38
Sphingomyelin (d18:1, C16:0) (female rats, fh28 (study day 28), Table 1, second listing): 1.15
